In patent US20140271499A1, “ARTICLE AND METHOD OF INITIATING BONE REGROWTH AND RESTORATION OF GUM RECESSION WITH LOCALIZED SUBGINGIVAL DELIVERY OF MEDICATIONS” (priority 2013, published 2014):
Entries after “also recorded” stand apart in the source; their conditions may differ.

Key:
[1] = tested on: osteoclasts; assay: Initial study of osteoclastic and osteoblastic activity on exposure to doxycycline; type: cell-based; conditions: exposed to doxycycline
Excerpt: Doxycycline bonds to internal and external calcium ions causing osteoclasts to detach from the bone, thus decreasing or stopping bone loss. […] The stoppage of bone loss and the maintenance of bone regeneration results in a net gain of new bone over time as long as the doxycycline is continually delivered to the bone/tissue interface with the currently disclosed method.

[2] = tested on: alveolar bone; assay: Clinical cases: topical tray delivery to the periodontal pocket, alveolar bone and gingival tissue regrowth; type: in vivo, patient
Excerpt: (§1) One exemplary method will now be described. An initial examination determines the conditions of the patient's periodontal disease. Models of the patient along with their periodontal probing is forwarded to a laboratory registered to make the custom formed medical device (Perio Tray), which is capable of delivering about 1.7% hydrogen peroxide gel (Perio Gel) to the diseased tissue. […] The depth of the biofilm and the tissue damage that exist determines the frequency and duration of usage. Patients with severe tissue damage (6 mm or greater) use the Perio Tray about 4 times a day. Patients with moderate damage (3 mm to 6 mm) use the Perio Tray about 3 times a day and patients maintain their health using the trays once or twice a day for about 15 minutes.
After the photographs of FIGS. 12A, 14A, 16A, and 18A were taken in 2004, the patient began a treatment as described above that included regular direct/topical medication delivery to the a to the gingival sulcus and/or periodontal pocket 37 in 2004 delivering doxycycline subgingival and interproximal with the medicament delivery tray.
The fact teeth appear longer as we age is supported in the literature. This is explained as a greater action of osteoclasts as compared to the cellular activity of osteoblasts with a resultant decrease in alveolar bone 40B around the patient's teeth 10 with an accompanying loss of gingival tissue 24B appearing as receding gum tissue 24B and the exposure of a greater root surface making the teeth 10 appear longer.

[3] = tested on: oral biofilm; assay: Penetration and eradication of oral biofilm by hydrogen peroxide gel
Excerpt: as §1

[4] = tested on: biofilm bacteria
[5] = oxygen delivered directly to the tissues

Compound	formation of new osteoclasts from osteoclastic precursor cells [1]	osteoblastic activity [1]	osteoclastic activity [1]	tooth mobility ([2]; case studies, direct delivery to the periodontal pocket)	formation of new osteoclasts by precursor cells ([2]; clinic tests)	bone loss and bone regeneration ([2]; delivery to gingival sulcus or periodontal pocket)	attachment of osteoclasts to bone ([2]; lengthy clinic tests)	cellular activity of osteoblasts ([2]; lengthy clinic tests)	alveolar bone (radiographs) ([2]; patient treated 1976 to 2012, hydrogen peroxide and topically applied doxycycline)	kill of biofilm bacteria [3]	eradication of biofilm bacteria ([4]; in 14 to 17 days)	time to bring to an end the facultative anaerobes [4, 5]	time to kill the obligate anaerobes [4, 5]
C[C@H]1c2cccc(O)c2C(=O)C2=C(O)[C@]3(O)C(=O)C(C(N)=O)=C(O)[C@@H](N(C)C)[C@@H]3[C@@H](O)[C@@H]21 [doxycycline]	completely abrogated	augmentation	decrease	decrease	completely stopped; also recorded: completely abrogates	stops bone loss and augments bone regeneration	inhibit	maintain or increase	regrown and increased				
OO [hydrogen peroxide]										99.999%	99.98%	7 days	2 days
